pIC50: −log10 of the molar value.
What was measured:
K562 = assay: Growth inhibition of human K562 cells incubated for 48 hrs by sulforhodamine B assay; assay type: functional; settings: K562, 48 h
MOLT-4 = assay: Growth inhibition of human MOLT4 cells incubated for 48 hrs by sulforhodamine B assay; assay type: functional; settings: MOLT-4, 48 h
A549 = assay: Growth inhibition of human A549/ATCC cells incubated for 48 hrs by sulforhodamine B assay; assay type: functional; settings: A549, 48 h
NCI-H322M = assay: Growth inhibition of human NCI-H322M cells incubated for 48 hrs by sulforhodamine B assay; assay type: functional
SF-268 = assay: Growth inhibition of human SF268 cells incubated for 48 hrs by sulforhodamine B assay; assay type: functional; settings: SF-268, 48 h
LOX IMVI = assay: Growth inhibition of human LOXIMVI cells incubated for 48 hrs by sulforhodamine B assay; assay type: functional
M14 = assay: Growth inhibition of human M14 cells incubated for 48 hrs by sulforhodamine B assay; assay type: functional; settings: M14, 48 h
MDA-MB-435 = assay: Growth inhibition of human MDA-MB-435 cells incubated for 48 hrs by sulforhodamine B assay; assay type: functional; settings: MDA-MB-435, 48 h
OVCAR-4 = assay: Growth inhibition of human OVCAR4 cells incubated for 48 hrs by sulforhodamine B assay; assay type: functional; settings: OVCAR-4, 48 h
OVCAR-5 = assay: Growth inhibition of human OVCAR5 cells incubated for 48 hrs by sulforhodamine B assay; assay type: functional; settings: OVCAR-5, 48 h
786-0 = assay: Growth inhibition of human 786-O cells incubated for 48 hrs by sulforhodamine B assay; assay type: functional; settings: 786-0, 48 h
PC-3 = assay: Growth inhibition of human PC3 cells incubated for 48 hrs by sulforhodamine B assay; assay type: functional; settings: PC-3, 48 h
MCF7 = assay: Growth inhibition of human MCF7 cells incubated for 48 hrs by sulforhodamine B assay; assay type: functional; settings: MCF7, 48 h
MDA-MB-231 = assay: Growth inhibition of human MDA-MB-231 cells incubated for 48 hrs by sulforhodamine B assay; assay type: functional; settings: MDA-MB-231, 48 h
T47D = assay: Growth inhibition of human T47D cells incubated for 48 hrs by sulforhodamine B assay; assay type: functional
[1] = Growth inhibition of human NCI60 cells at 10 uM after 48 hrs by SRB assay relative to control; values are per cent of control; settings: NCI60, 48 h
SF-295 = assay: Growth inhibition of human SF295 cells incubated for 48 hrs by sulforhodamine B assay; assay type: functional; settings: SF-295, 48 h
[2] = Inhibition of PTK in human MCF7 cells preincubated for 2 hrs followed by poly-Glu-Tyr substrate addition by ELISA; assay type: cell-based
[3] = Safety index, ratio of compound IC50 to 5-fluorouracil IC50 for human WI38 cells; assay type: ADME, cell-based; settings: WI-38 cells, read-out: Ratio IC50
[4] = Safety index, ratio of compound IC50 to 5-fluorouracil IC50 for human WISH cells; assay type: ADME, cell-based; settings: read-out: Ratio IC50

SMILES	GI50 (K562)	GI50 (MOLT-4)	GI50 (A549)	GI50 (NCI-H322M)	GI50 (SF-268)	GI50 (LOX IMVI)	GI50 (M14)	GI50 (MDA-MB-435)	GI50 (OVCAR-4)	GI50 (OVCAR-5)	GI50 (786-0)	GI50 (PC-3)	GI50 (MCF7)	GI50 (MDA-MB-231)	GI50 (T47D)	growth percent at 10 µM [1]	GI50 (SF-295)	pIC50 [2]	selectivity ratio [3]	selectivity ratio [4]
N=C(N)c1ccc(-c2ccc(-c3ccccc3)s2)cc1F	3.97 µM	4.4 µM	5.1 µM	6 µM	11.2 µM	2.58 µM	2.12 µM	2.18 µM	10.4 µM	10.9 µM	6.02 µM	4.18 µM	3.17 µM	3.34 µM	5.13 µM	-79.2%				
COc1cc(OC)cc(-c2ccc(-c3ccc(C(=N)N)cc3)s2)c1	0.418 µM	1.65 µM	2.58 µM	1.69 µM	1.85 µM	0.924 µM	1.73 µM	1.7 µM	2.06 µM	1.9 µM	1.87 µM	1.8 µM	1.22 µM	2.08 µM	1.65 µM	-74.1%	1.82 µM			
COc1ccc(-c2ccc(-c3ccc(C(=N)N)c(F)c3)s2)cc1	2.66 µM	3.26 µM	4.76 µM	3.58 µM	4.85 µM	2.23 µM	1.9 µM	1.83 µM	6.42 µM	4.98 µM	3.93 µM	4.05 µM	2.08 µM	2.75 µM	2.92 µM	-80.5%		6.04		
N=C(N)c1ccc(-c2ccc(-c3ccc(Cl)cc3)s2)cc1	0.202 µM	0.207 µM	0.202 µM	0.182 µM	0.184 µM	0.179 µM	0.172 µM	0.172 µM	0.172 µM	0.169 µM	0.178 µM	0.164 µM	0.171 µM	0.184 µM	0.179 µM	-70.5%	0.171 µM	7.89		
N=C(N)c1ccc(-c2ccc(-c3ccc(Cl)cc3)s2)cc1F	0.272 µM	0.243 µM	0.217 µM	0.386 µM	0.197 µM	0.205 µM	0.179 µM	0.163 µM	0.224 µM	0.248 µM	0.192 µM	0.394 µM	0.168 µM			-67.3%	0.691 µM	6.97	6	9
COc1cc(OC)cc(-c2ccc(-c3ccc(C(=N)N)c(F)c3)s2)c1	0.262 µM	0.326 µM	0.4 µM	0.502 µM	1.15 µM	0.196 µM	0.184 µM	0.194 µM	0.361 µM	0.207 µM	0.174 µM	1.3 µM	0.194 µM			-77.8%	1.59 µM	6.06		
N=C(N)c1ccc(-c2ccc(-c3ccc(F)cc3)s2)cc1	0.268 µM	1.58 µM	2.12 µM	1.33 µM	1.54 µM	0.164 µM	1.6 µM	1.66 µM	1.63 µM	1.55 µM	1.47 µM	1.59 µM	0.323 µM	1.56 µM	1.2 µM	-78.7%	1.66 µM			

Reference: ChEMBL document CHEMBL4007388, “Synthesis and antiproliferative activity of monocationic arylthiophene derivatives” (Eur J Med Chem, 2017)
